Measurements taken from patent US9790221B2, “Heteroaryl compounds as IRAK inhibitors and uses thereof” (Merck Patent GmbH, priority 2014, dated 2017).

Legend:
[1] = target: IRAK4 (Homo sapiens (Human), UniProt Q9NWZ3); test: IRAK4 enzymatic assay; type: biochemical
Method: IRAK4 is a human purified recombinant enzyme ([…]. IRAK4 hydrolyses ATP, autophosphorylates and phosphorylates a Serine/Threonine generic peptidic substrate (STK: 61ST1BLC from CisBio International based in Bagnols/Cèze FR).
Measurement of IRAK-4 inhibition was performed in streptavidin coated 384well FlashPlate (PerkinElmer #SMP410A). His-TEV-IRAK4 (20 ng/well), ATP (2 μM, [^33P]ATP 0.25 µCi/well), STK1-biotin peptide (300 nM) and compounds in DMSO (range of concentrations from 20 µM to 1 nM) or controls (2% DMSO) were incubated for 3 hours at 30° C. in assay buffer: Hepes pH7.0 50 mM, Fatty acid-free BSA 0.1%, Dithiothreitol DTT 2 mM, MgCl2 10 mM, EGTA 0.5 mM, Tween-20 0.01%, MnCl2 5 mM.
Kinase reaction was stopped by addition of EDTA. Supernatant was discarded, plates were washed three times with 150 mM NaCl and radioactivity was then measured in a Microbeta Trilux reader.

[2] = target: IRAK1 (His-TEV-IRAK1 (194-712)) (Homo sapiens (Human), UniProt P51617); test: IRAK1 enzymatic assay; type: biochemical
Method: IRAK1 is a human purified recombinant enzyme (His-TEV-IRAK1 (194-712)). In this assay, IRAK-1 hydrolyses ATP and autophosphorylates. Measurement of IRAK-1 inhibition was performed in streptavidin coated 384well FlashPlate (PerkinElmer #SMP410A).
His-TEV-IRAK-1 (15 ng/well), ATP (1 μM, [33P]ATP 0.25 μCi/well) and compounds in DMSO (range of concentrations from 20 µM to 1 nM) or controls (2% DMSO) were incubated for 3 hours at 30° C. in assay buffer: Hepes pH7.0 50 mM, Fatty acid-free BSA 0.1%, Dithiothreitol DTT 2 mM, MgCl2 10 mM, EGTA 0.5 mM, Triton-X-100 0.01%. Kinase reaction was stopped by addition of EDTA. Supernatant was discarded, plates were washed three times with 150 mM NaCl and radioactivity was then measured in a Microbeta Trilux reader.

IRAK4, sequence (Q9NWZ3 whole entry): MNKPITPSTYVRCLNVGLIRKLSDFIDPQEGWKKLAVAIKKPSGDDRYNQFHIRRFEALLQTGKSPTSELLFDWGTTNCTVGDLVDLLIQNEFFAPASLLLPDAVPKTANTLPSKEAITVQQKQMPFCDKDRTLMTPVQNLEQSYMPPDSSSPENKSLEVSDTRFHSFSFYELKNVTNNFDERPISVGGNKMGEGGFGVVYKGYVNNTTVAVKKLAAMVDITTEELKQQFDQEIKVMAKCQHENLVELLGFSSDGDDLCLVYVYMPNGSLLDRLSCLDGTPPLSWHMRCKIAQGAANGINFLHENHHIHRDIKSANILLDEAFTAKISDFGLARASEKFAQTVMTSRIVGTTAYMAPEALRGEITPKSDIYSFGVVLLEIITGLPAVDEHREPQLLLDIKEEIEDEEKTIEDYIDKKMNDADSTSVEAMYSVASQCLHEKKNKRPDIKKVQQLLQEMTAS
IRAK1 (His-TEV-IRAK1 (194-712)), sequence (P51617 194-712): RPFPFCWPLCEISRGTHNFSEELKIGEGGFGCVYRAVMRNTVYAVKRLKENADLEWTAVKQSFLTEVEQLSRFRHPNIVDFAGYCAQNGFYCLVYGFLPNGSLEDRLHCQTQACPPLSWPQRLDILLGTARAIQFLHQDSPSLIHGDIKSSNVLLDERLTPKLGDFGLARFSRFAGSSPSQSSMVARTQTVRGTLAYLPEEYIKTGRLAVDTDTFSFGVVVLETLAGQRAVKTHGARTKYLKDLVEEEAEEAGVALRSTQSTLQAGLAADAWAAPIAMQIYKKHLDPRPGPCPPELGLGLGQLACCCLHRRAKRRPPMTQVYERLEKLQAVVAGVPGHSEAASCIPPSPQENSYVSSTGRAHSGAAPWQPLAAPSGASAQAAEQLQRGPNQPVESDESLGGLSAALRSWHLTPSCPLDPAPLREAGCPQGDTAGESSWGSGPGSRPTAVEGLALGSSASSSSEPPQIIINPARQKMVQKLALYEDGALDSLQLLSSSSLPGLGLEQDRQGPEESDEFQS

Structure (SMILES)	IC50 [1]	IC50 [2]
Cn1cc(-c2cccc(-c3ncc(-c4cnn(C)c4)c(N4CC5CNCC5C4)n3)c2)cn1 (centres unmarked) [Example 191]	100 to 1000 nM	> 5000 nM
Cc1nnc(-c2cnc(-c3cccc(-c4cnn(C)c4)c3)nc2NCC2CN(S(C)(=O)=O)C2)s1 [Example 192]	< 100 nM	1000 to 5000 nM
Cn1cc(-c2cccc(-c3ncc(-c4cnn(C)c4)c(NC4CC5CCC4N5)n3)c2)cn1 (centres unmarked) [Example 193]	100 to 1000 nM	> 5000 nM
Cn1cc(-c2cccc(-c3ncc(-c4cnn(C)c4)c(N[C@H]4C[C@H](N)C4)n3)c2)cn1 [Example 197]	100 to 1000 nM	> 5000 nM
CC(=O)NCC1CCC(Nc2nc(-c3cccc(-c4cnn(C)c4)c3)ncc2-c2cnn(C)c2)CC1 (centres unmarked) [Example 198]	< 100 nM	1000 to 5000 nM
Cn1cc(-c2cccc(-c3ncc(-c4cnn(C)c4)c(NCC4CCCC4N)n3)c2)cn1 (centres unmarked) [Example 200]	100 to 1000 nM	1000 to 5000 nM
Cn1cc(-c2cccc(-c3ncc(-c4cnn(C)c4)c(NC4CCC(CNS(C)(=O)=O)CC4)n3)c2)cn1 (centres unmarked) [Example 201]	< 100 nM	1000 to 5000 nM
CC(=O)N[C@H]1C[C@H](Nc2nc(-c3cccc(-c4cnn(C)c4)c3)ncc2-c2cnn(C)c2)C1 [Example 202]	100 to 1000 nM	1000 to 5000 nM
Cn1cc(-c2cccc(-c3ncc(-c4cnn(C)c4)c(NCC4CCCC4NS(C)(=O)=O)n3)c2)cn1 (centres unmarked) [Example 203]	100 to 1000 nM	1000 to 5000 nM
CC(=O)NC1CCC(Nc2nc(-c3cccc(-c4cnn(C)c4)c3)ncc2-c2nnc(C)s2)CC1 (centres unmarked) [Example 205]	< 100 nM	100 to 1000 nM
CC(=O)NC[C@H]1C[C@H](Nc2nc(-c3cccc(-c4cnn(C)c4)c3)ncc2-c2cnn(C)c2)C1 [Example 212, N-(3-{5-(1-Methyl-1H-pyrazol-4-yl)-2-[3-(1-methyl-1H-pyrazol-4-yl)-phenyl]-pyrimidin-4-ylamino}-cyclobutylmethyl)-acetamide]	100 to 1000 nM	> 5000 nM
Cn1cc(-c2cccc(-c3ncc(-c4cnn(C)c4)c(N4CCC(O)C4)n3)c2)cn1 (centres unmarked) [Example 218]	100 to 1000 nM	1000 to 5000 nM
Cn1cc(-c2cccc(-c3ncc(-c4cnn(C)c4)c(N4CCCC(CO)C4)n3)c2)cn1 (centres unmarked) [Example 220]	< 100 nM	100 to 1000 nM
CN(CCC#N)c1nc(-c2cccc(-c3cnn(C)c3)c2)ncc1-c1cnn(C)c1 [Example 222]	100 to 1000 nM	100 to 1000 nM
Cn1cc(-c2cccc(-c3ncc(-c4cnn(C)c4)c(NC(C)(C)C)n3)c2)cn1 [Example 223]	< 100 nM	100 to 1000 nM
Cn1cc(-c2cccc(-c3ncc(-c4cnn(C)c4)c(NC[C@@H]4CCCC[C@H]4O)n3)c2)cn1 [Example 224]	< 100 nM	1000 to 5000 nM
Cn1cc(-c2cccc(-c3ncc(-c4cnn(C)c4)c(N4CC(O)C4)n3)c2)cn1 [Example 226]	100 to 1000 nM	> 5000 nM
Cn1cc(-c2cccc(-c3ncc(-c4cnn(C)c4)c(NCCC4(O)CCCC4)n3)c2)cn1 [Example 227]	< 100 nM	100 to 1000 nM
Cn1cc(-c2cccc(-c3ncc(-c4cnn(C)c4)c(N4CCC(CCO)C4)n3)c2)cn1 (centres unmarked) [Example 228]	1000 to 5000 nM	> 5000 nM
Cn1cc(-c2cccc(-c3ncc(-c4cnn(C)c4)c(NCC4CCNCC4F)n3)c2)cn1 (centres unmarked) [Example 229]	100 to 1000 nM	> 5000 nM
Cn1cc(-c2cccc(-c3ncc(-c4cnn(C)c4)c(N4CCC[C@H]4CO)n3)c2)cn1 [Example 230]	1000 to 5000 nM	> 5000 nM
Cn1cc(-c2cccc(-c3ncc(-c4cnn(C)c4)c(NCC4(F)CCNCC4)n3)c2)cn1 [Example 231]	1000 to 5000 nM	> 5000 nM

Structure (SMILES)	IC50 [1]	IC50 [2]
COC(=O)[C@@H]1CCC[C@H](Nc2nc(-c3cccc(-c4cnn(C)c4)c3)ncc2-c2cnn(C)c2)C1 [Example 232]	< 100 nM	100 to 1000 nM
Cn1cc(-c2cccc(-c3ncc(-c4cnn(C)c4)c(NCC4CCN(S(C)(=O)=O)CC4F)n3)c2)cn1 (centres unmarked) [Example 234]	< 100 nM	1000 to 5000 nM
CC(=O)N1CCC(CNc2nc(-c3cccc(-c4cnn(C)c4)c3)ncc2-c2cnn(C)c2)C(F)C1 (centres unmarked) [Example 235]	100 to 1000 nM	1000 to 5000 nM
Cn1cc(-c2cccc(-c3ncc(-c4cnn(C)c4)c(NCC4(F)CCN(S(C)(=O)=O)CC4)n3)c2)cn1 [Example 236]	100 to 1000 nM	1000 to 5000 nM
CC(=O)N1CCC(F)(CNc2nc(-c3cccc(-c4cnn(C)c4)c3)ncc2-c2cnn(C)c2)CC1 [Example 237]	100 to 1000 nM	1000 to 5000 nM
Cn1cc(-c2cccc(-c3ncc(-c4cnn(C)c4)c(NCC4(O)CCNCC4)n3)c2)cn1 [Example 240]	100 to 1000 nM	> 5000 nM
Cn1cc(-c2cccc(-c3ncc(-c4cnn(C)c4)c(N4CC[C@@H](N)C4)n3)c2)cn1 [Example 241]	100 to 1000 nM	1000 to 5000 nM
CC(=O)N[C@@H]1CCN(c2nc(-c3cccc(-c4cnn(C)c4)c3)ncc2-c2cnn(C)c2)C1 [Example 246]	1000 to 5000 nM	> 5000 nM
Cn1cc(-c2cccc(-c3ncc(-c4cnn(C)c4)c(N4CC[C@@H](NS(C)(=O)=O)C4)n3)c2)cn1 [Example 247]	100 to 1000 nM	1000 to 5000 nM
Cn1cc(-c2cccc(-c3ncc(-c4cnn(C)c4)c(NCC4(O)CCN(S(C)(=O)=O)CC4)n3)c2)cn1 [Example 249]	100 to 1000 nM	1000 to 5000 nM
Cn1cc(-c2cccc(-c3ncc(-c4cnn(C)c4)c(N4CCC(NS(C)(=O)=O)CC4)n3)c2)cn1 [Example 250]	100 to 1000 nM	1000 to 5000 nM
Cn1cc(-c2cccc(-c3ncc(-c4cnn(C)c4)c(NCCC4CCCCN4)n3)c2)cn1 (centres unmarked) [Example 251]	1000 to 5000 nM	> 5000 nM
Cn1cc(-c2cccc(-c3ncc(-c4cnn(C)c4)c(NCC4(N)CCCCC4)n3)c2)cn1 [Example 252]	< 100 nM	100 to 1000 nM
CC(=O)N1CCC(Nc2nc(-c3cccc(-c4cnn(C)c4)c3)ncc2-c2cnn(C)c2)CC1 [Example 255]	100 to 1000 nM	100 to 1000 nM
CC(=O)N1CCCCC1CCNc1nc(-c2cccc(-c3cnn(C)c3)c2)ncc1-c1cnn(C)c1 (centres unmarked) [Example 258]	100 to 1000 nM	> 5000 nM
Cn1cc(-c2cccc(-c3ncc(-c4cnn(C)c4)c(NCCC4CCCCN4S(C)(=O)=O)n3)c2)cn1 (centres unmarked) [Example 259]	100 to 1000 nM	> 5000 nM
Cn1cc(-c2cccc(-c3ncc(-c4cnn(C)c4)c(N4CCC(CO)C4)n3)c2)cn1 (centres unmarked) [Example 261]	100 to 1000 nM	1000 to 5000 nM
Cn1cc(-c2cccc(-c3ncc(-c4cnn(C)c4)c(N[C@H]4CC[C@@H](N5CCOCC5)CC4)n3)c2)cn1 [Example 263]	1000 to 5000 nM	> 5000 nM
Cn1cc(-c2cccc(-c3ncc(-c4cnn(C)c4)c(N4CCC(CN)C4)n3)c2)cn1 (centres unmarked) [Example 264]	1000 to 5000 nM	> 5000 nM
CC(Nc1nc(-c2cccc(-c3cnn(C)c3)c2)ncc1-c1cnn(C)c1)C1CCN(S(C)(=O)=O)CC1 (centres unmarked) [Example 274]	100 to 1000 nM	> 5000 nM
CC(=O)N1CCC(O)(CNc2nc(-c3cccc(-c4cnn(C)c4)c3)ncc2-c2cnn(C)c2)CC1 [Example 277]	100 to 1000 nM	> 5000 nM
